“Also recorded” adds a separate entry of the source. Each block holds one compound with its values, some of them ahead of it.
Columns and labels:
human CXCR5 [1] = molecular target: T1, human CXCR5 (Homo sapiens, UniProt P32302); assay: Calcium assay: inhibition of Gaq-mediated Ca2+ flux at an EC80 of CXCL13 agonist; assay type: cell-based; conditions: HEK-293 cells transfected with human CXCR5, in the presence or absence of BSA
T1 construct: expressed in transfected cells; host or cells: HEK-293 (division-arrested, stably expressing)
T1 sequence (P32302 1-372): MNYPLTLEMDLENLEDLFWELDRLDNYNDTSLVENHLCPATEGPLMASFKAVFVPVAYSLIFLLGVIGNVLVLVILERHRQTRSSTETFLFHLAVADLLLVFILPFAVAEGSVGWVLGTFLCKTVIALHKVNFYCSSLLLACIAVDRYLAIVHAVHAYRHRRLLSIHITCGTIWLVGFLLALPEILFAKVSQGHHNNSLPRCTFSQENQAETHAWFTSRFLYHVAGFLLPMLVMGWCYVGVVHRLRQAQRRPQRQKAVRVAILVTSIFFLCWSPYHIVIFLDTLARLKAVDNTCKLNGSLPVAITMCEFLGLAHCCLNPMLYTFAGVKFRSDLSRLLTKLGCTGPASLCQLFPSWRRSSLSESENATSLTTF
Description: FIGS. 1A-1B illustrate inhibition of Gaq-mediated Ca^2+ flux for certain compounds of the disclosure. The assays use HEK cells stably expressing functional human CXCR5 and measure inhibition of Gaq-mediated Ca^2+ flux at an EC80 of CXCL13 agonist. Assays were performed in HBSS buffer (FIG. 1A) and HBSS buffer+1% BSA (FIG. 1B); the compounds were active in the presence of the bovine serum albumin, without significant change in an IC50 value. Compound 1 is 2-(3-methyl-2-(2-methylprop-1-en-1-yl)benzamido)-2,3-dihydro-1H-indene-2-carboxylic acid; Compound 2 is 2-(2-isobutyl-3-methylbenzamido)-2,3-dihydro-1H-indene-2-carboxylic acid.
(§1) These assays were performed in division-arrested HEK-293 cells transfected with human CXCR5. The CXCL13 ligand was used as agonist.
The calcium assay allows homogeneous measurement of intracellular calcium changes caused by activation of G-protein coupled receptors or calcium channels.
For adherent cells, plate 50K to 70K cells/well for a 96 well plate and 12K to 20K cells/well for a 384 well plate the day before the experiment. Add 100 μl/well of cell suspension to 96-well plates or 25 μl/well to 384-well plates, allow cells to attach and grow overnight for 16 to 24 hours in cell culture incubators. Prior to dye loading the plate, examine the cells for confluency and overall health.
1. […]

human CXCR5 [2] = molecular target: T1, human CXCR5; assay: Cyclic AMP assay: inhibition of Gai-mediated decrease of cAMP at an EC80 of CXCL13; assay type: cell-based; conditions: HEK-293 cells transfected with human CXCR5, in the presence or absence of BSA
Description: FIGS. 2A-2B illustrate inhibition of Gat-mediated decrease of cAMP for certain compounds of the disclosure. The assays use HEK cells stably expressing functional human CXCR5 and measure inhibition of Gat-mediated decrease of cAMP at an EC80 of CXCL13. Assays were performed in HBSS buffer (FIG. 2A) and HBSS buffer+1% BSA (FIG. 2B); the compounds were active in the presence of the bovine serum albumin, without significant change in an IC50 value.
as §1

[3] = In vivo PK, oral doses of 10, 30 and 60 mg/kg; parameters: species or system female CB.17 SCID mice; conditions: oral 10, 30 and 60 mg/kg
Description: FIG. 5 illustrates in vivo PK results for multiple doses of Compound 2 administered orally. 9 female CB.17 SCID mice per group were used except for vehicle control group, where 15 mice were tested. Three drug doses were used (10, 30 and 60 mg/kg), with dosing volume of 10 mL/kg (0.200 mL/20 g mouse) for each dose. Volume was adjusted for body weight, and analysis was run at 6 different time points.
(§2) For suitability of murine AITL patient derived xenografts (PDX) studies, pharmacokinetics (PK) of Compound 2 were determined by IV, oral, and IP administration (FIG. 4). These parameters provided confidence for oral administration studies at different doses and are suitable for further PK studies at 24-hour measurement at different oral doses. The study allowed one to determine the dose that results in a blood level of ˜IC80.

Raji cell line = assay: Proliferation of CXCR5-expressing Burkitt's B-cell lymphoma cell line over 7 days; assay type: cell-based; conditions: 7-day period, media containing 5% FBS, various doses, DMSO negative control
Description: FIG. 3 illustrates proliferation of the CXCR5-expressing Burkitt's B-cell lymphoma cell line (Raji cell line) over a 7-day period in the media containing 5% FBS in the presence of various doses of Compound 2 or Compound 3 (1-(2-isobutyl-3-methylbenzamido)-2,3-dihydro-1H-indene-1-carboxylic acid). […] DMSO is shown as a negative control.
At this time a Tfh or AITL cell line has not been developed. Thus, a B-cell lymphoma cell line (Raji) was used to determine whether the contemplated compounds can inhibit proliferation. In this experiment, Compound 2 was compared to analogue Compound 3 over a 7-day period (FIG. 3).

[4] = Preliminary toxicity/tolerability study, 40 mg/kg BID by oral gavage; assay type: in vivo, NSG mice
Description: FIG. 8 illustrates absolute body weight for mice treated with Compound 2, 40 mg/kg BID. 5 NSG mice (highly immunodeficient, same strain as in the in vivo efficacy study) were tested. Compound 2 was administered via oral gavage, BID (twice a day) for 14 days. […] Body weight was monitored daily. Mean body weight loss was <4%, confirming tolerability.
It was decided that a dose of 40 mg/kg would be used in the AITL PDX studies (design outlined in FIG. 6). Prior to the study, preliminary 1-week toxicity studies were performed on the NSG immunocompromised mice (NOD/SCID, IL-2R knockout) that would be used on the AITL PDX study (FIG. 8).

[5] = 10-day oral dosing PK/tolerability study, 30 mg/kg every 12 hours; assay type: in vivo, female CB.17 SCID mice
Description: FIG. 6 illustrates a dosing scheme for oral administration of Compound 2 over 10 days. Female CB.17 SCID mice were dosed according to the table shown: Groups 1-2 were treated with the drug and Group 3 animals were treated with vehicle control. Mice were orally dosed at 30 mg/kg every 12 hours for 10 days. Group 2 (18 animals total, alternating animals) were used for PK blood analysis, and Group 1 (5 animals total) were sacrificed at end point for gross necropsy.
FIGS. 7A-7B illustrate in vivo PK results for multiple doses of Compound 2 (30 mg/kg) administered orally over 10 days. […] No change in slope of decrease indicated no change in rate of metabolism.
as §2

[6] = tested on: patient-derived AITL tissue; assay: In vivo efficacy in AITL patient-derived xenograft (human CD45+ cells)
Description: FIGS. 9A-9B illustrate CD45 levels in bone marrow (FIG. 9A) and peripheral blood (FIG. 9B) of mice treated with Compound 2 or vehicle. […] (NOD/SCID, IL-2R knockout) mice (8 animals per group) were implanted with patient-derived AITL tissue. Compound 2 binds to human but not to murine CXCR5. Animals were treated with vehicle or 40 mg/kg Compound 2 via oral gavage 2×/day. t test comparing all mice at the time of sacrifice was performed to analyze the data. Error bars—SEM.
For in vivo efficacy study, mice were implanted with AITL PDX and engraftment levels were quantified in each animal as circulating human CD45+ cells levels in blood. Dosing began when average engraftment reached 0.13%, and the cohort was treated for 42 days. The mice were monitored weekly for weight loss and daily for any clinical mortality observation. Only 1 treated mouse lost weight (14%) during the first week but gained it back and was otherwise stable similar to the other mice. Blood was drawn at 0, 14, and 28 days after the dosing started, and before euthanasia to measure tumor burden. […] When mice were sacrificed, various organs were removed and stored at −80° C. At the end of the study (42 days of dosing), 3 and 5 mice treated with vehicle or Compound 2, respectively, were still alive. […] The absolute percentage in the blood was 44.5% and 57.6% for treated and untreated mice, respectively.
PDX was implanted into immunocompromised NSG mice.
Starting at around 21 days after implantation, animals are examined for engraftment every 1-2 weeks. Engraftment is determined by measuring human CD45+ cells in blood (flow cytometry).
After engraftment is observed, animals are dosed by oral gavage every 10-14 hours with vehicle (untreated groups) or with compound YU241279 at 40 mg/kg (treated groups).
Animals are evaluated for general health daily and weighed twice per week; circulating human CD45+ cells are measured on days 14 and 28 after treatment initiation to evaluate tumor progression. Based on day 28 analysis, treatment may be extended (the decision to extend the dosing is based on the health status of the vehicle group: CD45 (<50%), lack of morbidity by day 28); Readouts at conclusion of the study include spleen weight, survival, and flow cytometry assessment for human CD45+ cells in blood and bone marrow.

murine CXCR5 = molecular target: T2, murine CXCR5 (Mus musculus, UniProt Q04683); assay: Binding to murine CXCR5
T2 sequence (Q04683 1-374): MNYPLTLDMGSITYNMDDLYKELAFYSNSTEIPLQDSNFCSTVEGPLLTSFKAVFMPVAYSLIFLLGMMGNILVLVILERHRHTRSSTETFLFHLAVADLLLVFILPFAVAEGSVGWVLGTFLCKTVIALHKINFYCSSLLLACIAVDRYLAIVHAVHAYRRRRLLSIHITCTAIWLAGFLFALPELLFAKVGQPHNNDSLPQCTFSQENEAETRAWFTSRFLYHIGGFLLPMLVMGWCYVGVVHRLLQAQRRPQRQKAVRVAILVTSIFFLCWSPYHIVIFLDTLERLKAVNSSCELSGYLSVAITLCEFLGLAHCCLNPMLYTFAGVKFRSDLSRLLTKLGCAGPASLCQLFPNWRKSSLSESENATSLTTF

human CXCR5 [7] = molecular target: T1, human CXCR5; assay: Binding to human CXCR5
[8] = In vivo PK, single dose by IV, PO or IP route
Description: Three groups of 30 mice (male, CD-1) were dosed via one route per group (PO, IP, or IV). Single dose level was used per route of administration. Dosing level (mg/kg): IV (1 mg/kg); PO (10 mg/kg); and IP (10 mg/kg). […] Blood collections were terminal for each mouse, so triplicate data was obtained for each time point.

[9] = 40 mg/kg oral gavage BID for 14 days, 5 NSG mice
[10] = 40 mg/ml (so in the source), NSG mice
[11] = at death, 40 mg/kg oral, treated mice

- activity in calcium assay (inhibition of Gaq-mediated Ca2+ flux) (human CXCR5 [1]): sub-micromolar
- activity in cyclic AMP assay (inhibition of decrease of cAMP) (human CXCR5 [2]): sub-micromolar
Compound: CC(C)=Cc1c(C)cccc1C(=O)NC1(C(=O)O)Cc2ccccc2C1 [Compound 1, 2-(3-methyl-2-(2-methylprop-1-en-1-yl)benzamido)-2,3-dihydro-1H-indene-2-carboxylic acid]

Compound: Cc1cccc(C(=O)NC2(C(=O)O)Cc3ccccc3C2)c1CC(C)C [Compound 2, 2-(2-isobutyl-3-methylbenzamido)-2,3-dihydro-1H-indene-2-carboxylic acid]
- compound blood level versus compound amount administered [3]: clear increase in compound blood level versus compound amount administered
- activity in calcium assay (inhibition of Gaq-mediated Ca2+ flux) (human CXCR5 [1]): sub-micromolar
- proliferation of Raji cells (Raji cell line): dose-dependent decrease in proliferation; also recorded: clearly inhibited proliferation
- mean body weight loss [4, 9]: < 4%
- morbidity [4, 9]: No morbidity was observed
- body weight gain compared with vehicle [4, 10]: did not gain weight as fast as the mice treated with vehicle
- other abnormalities [4, 10]: no other abnormalities observed
- tolerability ([5]; 10-day study at 30 mg/kg oral): demonstrated tolerability
- health of animals ([5]; oral 30 mg/kg every 12 hours for 10 days, during dosing and for 2 weeks following): good health
- change of compound metabolism over dosing period ([5]; oral 30 mg/kg every 12 hours, 10 days, first two doses versus 20th dose, 30 mg/kg): compound metabolism was unchanged; also recorded: no change metabolism
- blood levels relative to IC50 between doses ([5]; oral 30 mg/kg, 12 hours between doses): remained above IC50 for full 12 hours
- tumor loads in peripheral blood and bone marrow compared to vehicle control ([6]; 40 mg/kg oral gavage 2x/day, at time of sacrifice): Significantly reduced tumor loads
- mice still alive at the end of the study ([6]; 42 days of dosing, 8 animals per group): 5
- absolute percentage of human CD45+ in the blood [6, 11]: 44.5%
- absolute percentage of human CD45+ in the bone marrow [6, 11]: 10.6%
- weight loss of the only treated mouse that lost weight ([6]; first week of dosing, 1 treated mouse, regained afterwards): 14%
- activity in cyclic AMP assay (inhibition of decrease of cAMP) (human CXCR5 [2]): sub-micromolar
- binding to murine CXCR5 (murine CXCR5): not
- binding to human CXCR5 (human CXCR5 [7]): binds
- clinical observations ([8]; IV arm subsequently dosed at 0.2 mg/mL delivered at 5 mL/kg): without any adverse observations
- clinical observations ([8]; original IV group, single dose): labored breathing, decreased activity, and death
- bioavailability ([8]; pharmacokinetic study in mice): confirmed bioavailability

Compound: Cc1cccc(C(=O)NC2(C(=O)O)CCc3ccccc32)c1CC(C)C (stereo not shown) [Compound 3, 1-(2-isobutyl-3-methylbenzamido)-2,3-dihydro-1H-indene-1-carboxylic acid]
- proliferation of Raji cells (Raji cell line): less potent than Compound 2
